Assay results published in ChEMBL document CHEMBL6127116, “Discovery of Potent and Selective Blockers Targeting the Epilepsy-Associated KNa1.1 Channel” (J Med Chem, 2024).

Key:
HEK293 = experiment: Cytotoxicity against HEK293 cells assessed as reduction in cell viability at 10 uM by CCK8 method relative to control; assay type: toxicity, cell-based; settings: human, hek293, 10 µM
[1] = Inhibition of KNa 1.1 (unknown origin); parameters: species or system Homo sapiens
[2] = target: T1, Potassium channel subfamily T member 1 (Homo sapiens, UniProt Q5JUK3); experiment: Inhibition of wild type human KNa1.1 expressed in HEK293T cells by patch-clamp electrophysiology method; assay type: cell-based
T1 sequence (Q5JUK3 whole entry): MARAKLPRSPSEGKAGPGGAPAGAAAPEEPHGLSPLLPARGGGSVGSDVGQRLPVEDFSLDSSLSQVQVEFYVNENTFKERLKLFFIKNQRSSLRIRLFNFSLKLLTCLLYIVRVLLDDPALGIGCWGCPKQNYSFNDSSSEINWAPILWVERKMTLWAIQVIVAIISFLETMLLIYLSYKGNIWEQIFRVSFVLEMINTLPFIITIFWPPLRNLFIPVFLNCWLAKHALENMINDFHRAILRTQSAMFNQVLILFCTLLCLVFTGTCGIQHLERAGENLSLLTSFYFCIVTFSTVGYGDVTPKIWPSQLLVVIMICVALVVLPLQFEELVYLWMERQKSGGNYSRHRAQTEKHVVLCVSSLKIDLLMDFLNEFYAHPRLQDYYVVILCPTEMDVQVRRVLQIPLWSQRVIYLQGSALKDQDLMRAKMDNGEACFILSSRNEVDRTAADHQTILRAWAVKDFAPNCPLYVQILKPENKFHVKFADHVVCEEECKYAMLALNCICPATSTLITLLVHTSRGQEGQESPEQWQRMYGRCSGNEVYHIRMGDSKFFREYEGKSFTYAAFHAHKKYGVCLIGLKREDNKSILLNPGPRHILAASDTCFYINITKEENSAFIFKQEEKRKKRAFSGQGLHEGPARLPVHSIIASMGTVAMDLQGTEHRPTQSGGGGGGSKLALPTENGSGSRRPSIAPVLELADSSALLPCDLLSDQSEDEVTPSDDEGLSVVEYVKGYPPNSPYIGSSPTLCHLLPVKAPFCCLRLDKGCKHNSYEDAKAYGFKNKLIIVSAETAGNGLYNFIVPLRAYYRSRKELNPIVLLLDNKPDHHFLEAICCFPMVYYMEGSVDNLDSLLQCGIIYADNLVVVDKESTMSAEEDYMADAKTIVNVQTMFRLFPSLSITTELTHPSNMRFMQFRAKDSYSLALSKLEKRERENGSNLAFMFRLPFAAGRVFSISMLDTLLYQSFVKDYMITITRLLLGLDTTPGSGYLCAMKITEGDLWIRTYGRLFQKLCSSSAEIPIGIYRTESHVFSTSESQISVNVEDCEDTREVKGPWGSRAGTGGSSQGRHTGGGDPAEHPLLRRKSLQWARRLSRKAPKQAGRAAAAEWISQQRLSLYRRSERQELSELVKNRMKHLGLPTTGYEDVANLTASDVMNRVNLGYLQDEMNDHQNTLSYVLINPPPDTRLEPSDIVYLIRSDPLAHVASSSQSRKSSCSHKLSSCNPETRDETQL

[3] = Inhibition of human wild type SLACK expressed in CHO cells by Whole-cell automated patch clamp assay; assay type: cell-based
[4] = target: Sodium channel protein type 5 subunit alpha (Homo sapiens, UniProt Q14524); experiment: Inhibition of Nav1.5 (unknown origin) expressed in HEK293T cells at 10 uM by patch-clamp electrophysiology method; assay type: cell-based
Sequence of Sodium channel protein type 5 subunit alpha (Q14524 whole entry): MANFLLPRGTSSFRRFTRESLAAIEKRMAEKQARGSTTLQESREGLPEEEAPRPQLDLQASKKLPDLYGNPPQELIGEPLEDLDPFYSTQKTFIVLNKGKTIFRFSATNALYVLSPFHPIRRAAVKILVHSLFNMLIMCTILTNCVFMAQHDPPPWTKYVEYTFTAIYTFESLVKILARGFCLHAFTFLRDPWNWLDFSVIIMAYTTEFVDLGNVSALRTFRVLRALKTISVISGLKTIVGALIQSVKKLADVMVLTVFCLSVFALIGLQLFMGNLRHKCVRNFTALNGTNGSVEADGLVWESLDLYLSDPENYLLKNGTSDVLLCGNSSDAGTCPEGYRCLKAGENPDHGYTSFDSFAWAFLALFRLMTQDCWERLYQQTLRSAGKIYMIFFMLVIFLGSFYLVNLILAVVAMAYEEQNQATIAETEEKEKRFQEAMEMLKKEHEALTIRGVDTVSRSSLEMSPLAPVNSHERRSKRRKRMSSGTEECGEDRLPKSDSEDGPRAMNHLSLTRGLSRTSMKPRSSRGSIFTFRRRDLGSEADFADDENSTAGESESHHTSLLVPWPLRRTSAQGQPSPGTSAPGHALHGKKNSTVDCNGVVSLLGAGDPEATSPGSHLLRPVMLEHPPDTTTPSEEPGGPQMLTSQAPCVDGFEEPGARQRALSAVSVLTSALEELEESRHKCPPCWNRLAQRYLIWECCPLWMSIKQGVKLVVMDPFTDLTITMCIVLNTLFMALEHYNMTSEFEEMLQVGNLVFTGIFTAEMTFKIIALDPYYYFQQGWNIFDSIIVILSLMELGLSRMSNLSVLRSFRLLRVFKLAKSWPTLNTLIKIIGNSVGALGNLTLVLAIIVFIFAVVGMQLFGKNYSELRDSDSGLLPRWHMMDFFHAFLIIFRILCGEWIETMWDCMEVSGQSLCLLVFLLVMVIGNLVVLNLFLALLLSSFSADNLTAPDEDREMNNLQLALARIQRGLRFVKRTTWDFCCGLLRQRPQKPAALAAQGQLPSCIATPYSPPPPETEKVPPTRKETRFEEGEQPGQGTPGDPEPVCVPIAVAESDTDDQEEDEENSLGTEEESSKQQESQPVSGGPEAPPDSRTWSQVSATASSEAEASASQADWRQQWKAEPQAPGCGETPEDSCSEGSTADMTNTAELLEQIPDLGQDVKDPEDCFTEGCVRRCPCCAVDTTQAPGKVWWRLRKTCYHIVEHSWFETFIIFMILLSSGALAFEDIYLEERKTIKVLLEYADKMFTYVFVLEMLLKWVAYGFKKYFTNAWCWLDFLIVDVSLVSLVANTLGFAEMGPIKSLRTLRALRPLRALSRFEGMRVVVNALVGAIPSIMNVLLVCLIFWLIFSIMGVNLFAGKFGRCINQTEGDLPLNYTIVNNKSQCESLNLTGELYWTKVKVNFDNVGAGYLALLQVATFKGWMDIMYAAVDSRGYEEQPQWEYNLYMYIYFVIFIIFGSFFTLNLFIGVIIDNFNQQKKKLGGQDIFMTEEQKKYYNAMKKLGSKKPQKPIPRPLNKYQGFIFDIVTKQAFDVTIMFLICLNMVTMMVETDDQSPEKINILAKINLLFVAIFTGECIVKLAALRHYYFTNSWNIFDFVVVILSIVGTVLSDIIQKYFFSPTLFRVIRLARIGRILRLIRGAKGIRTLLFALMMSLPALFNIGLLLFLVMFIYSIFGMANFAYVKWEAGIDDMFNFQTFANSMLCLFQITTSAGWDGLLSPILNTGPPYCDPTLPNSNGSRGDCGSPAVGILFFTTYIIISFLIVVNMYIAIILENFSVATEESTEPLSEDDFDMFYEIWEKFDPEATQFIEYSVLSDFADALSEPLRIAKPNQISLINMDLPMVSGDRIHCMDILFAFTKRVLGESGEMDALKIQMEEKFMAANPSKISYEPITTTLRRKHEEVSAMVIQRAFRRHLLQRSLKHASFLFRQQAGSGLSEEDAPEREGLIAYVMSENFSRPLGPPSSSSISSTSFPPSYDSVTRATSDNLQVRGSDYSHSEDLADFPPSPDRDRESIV

C=C[C@H]1CN2CC[C@H]1C[C@@H]2[C@@H](O)c1ccnc2ccc(OC)cc12 [QUINIDINE]
Activity (HEK293): 103.53% | IC50 [1]: 89.6 µM

CC(C)COCC(CN(Cc1ccccc1)c1ccccc1)N1CCCC1 (configuration not stated) [BEPRIDIL]
IC50 [2]: 16.3 µM | IC50 [1]: 6.36 µM

Cc1ccc2cccc(S(=O)(=O)N3CC(c4nc(-c5ccc(F)cc5)no4)C3)c2n1
IC50 [3]: 0.32 µM

CCOc1ccccc1S(=O)(=O)N1CC(c2nc(-c3ccsc3)no2)C1
IC50 [1]: 2.1 µM

CCn1c2c(c3ccccc31)CN(CCCCNCc1c(OCc3ccc(F)cc3)ccc3ccccc13)CC2
inhibition (INH) [4]: Not Active
